Test systems include KM-20L2; HOP-18; MCF7; SNB-78; DLD-1; NCI/ADR-RES; PC-3; MDA-MB-435; RXF 631.
What all share (test): NCI-60 cell line screen, 48 h

Results on 33 compounds are retold here after ChEMBL document CHEMBL1201862, “PubChem BioAssay data set” (2004).

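Briefly, cells in 96-well plates were exposed to five compound concentrations for 48 h, and endpoints were estimated by linear interpolation. Here, GI50 denotes the concentration required for 50% inhibition of growth.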 Calls of active or inactive are those of the source. No stated cut-off is given here; in the data, active = GI50 up to about 1.1 µM and inactive = higher.

Turning to `Cc1c2ccncc2c(C)c2c1[nH]c1ccc(OCCN(C)C)cc12`, the GI50 in the assay on KM-20L2 is 0.113 µM (active); in the assay with HOP-18 it was 0.598 µM (active); with MCF7 it was 0.164 µM (active); with SNB-78 it was 1.13 µM (inactive); with DLD-1, 0.0893 µM (active); with NCI/ADR-RES it was 0.0916 µM (active).

Regarding `CCOC(=O)c1c(Cl)nc2ccccc2c1N=[N+]=[N-]`, the GI50 is 32.2 µM (inactive) with PC-3 and 21.1 µM (inactive) in the assay on MDA-MB-435.

Take `CC(C)=CCC/C(C)=C/CC/C(C)=C/C(O)c1ccccc1` (stereo unspecified): the GI50 in the assay on KM-20L2 is 21.3 µM (inactive); with SNB-78, 22.6 µM (inactive); with DLD-1 it was 18.5 µM (inactive); with RXF 631, 18 µM (inactive).

For `COC1(O)c2cccc(Cl)c2C(=O)N1C1(C(N)=O)CCCCC1` (stereo unspecified), the GI50 in the assay with KM-20L2, in the assay on HOP-18, in the assay on MCF7, in the assay on SNB-78, in the assay with DLD-1 and in the assay on NCI/ADR-RES was > 100 µM (inactive) throughout.

Regarding `CCN(CC)c1c(C(=O)/C=C/c2ccc(Cl)cc2)c(-c2ccccc2)nn(C)c1=O`, the GI50 with KM-20L2 is 2.47 µM (inactive); with HOP-18, 2.09 µM (inactive); with SNB-78, 2.61 µM (inactive); in the assay on DLD-1 it was 1.73 µM (inactive); with RXF 631, 2.14 µM (inactive).

Take `O=C(O)/C(O)=C1/C=C(c2ccccc2)c2ccccc21`: the GI50 in the assay with KM-20L2 was 33.7 µM (inactive); with HOP-18 it was 22 µM (inactive); with SNB-78, 31.4 µM (inactive); in the assay on DLD-1 it was 30.1 µM (inactive); with RXF 631, 28.6 µM (inactive).

As for `N#Cc1c(N2CCCC2)ncn(-c2ccccc2)c1=S`, the GI50 in the assay with MCF7, in the assay with PC-3, with MDA-MB-435 and in the assay on NCI/ADR-RES was > 100 µM (inactive) in each case.

For `O=C(O)C(SC(=S)c1ccc(C(=S)SC(C(=O)O)c2ccccc2)cc1)c1ccccc1` (stereo unspecified), the GI50 in the assay with SNB-78, in the assay on DLD-1 and with RXF 631 was > 100 µM (inactive) throughout.

Turning to `C1CCCCc2nc3c(nc2CCC1)c1nc2c(nc1c1nc4c(nc31)CCCCCCCC4)CCCCCCCC2`, the GI50 in the assay on KM-20L2, with HOP-18, with SNB-78, with DLD-1 and in the assay with RXF 631 was > 100 µM (inactive) throughout.

Regarding `O=C(Nc1nccs1)c1c(O)nc2sccn2c1=O`, the GI50 with MCF7, in the assay with PC-3, in the assay with MDA-MB-435 and in the assay on NCI/ADR-RES was > 10 µM (inactive) throughout.

Consider `O=C(O)C1CC2C=CCC(C2)C1` (stereo unspecified), for which the GI50 in the assay on KM-20L2, in the assay on HOP-18, in the assay on SNB-78 and with DLD-1 was > 100 µM (inactive) each time.

Turning to `CC1SC2=NC3=C(c4ccccc4C3=O)C(c3ccccc3Cl)N2C1=O` (stereo unspecified), the GI50 in the assay with KM-20L2, with DLD-1 and with RXF 631 was > 100 µM (inactive) each time.

For the compound `C[Si](C)(N[Si](C)(C)OCCc1ccccc1)OCCc1ccccc1`, the GI50 in the assay on MCF7, in the assay on PC-3, in the assay on MDA-MB-435 and with NCI/ADR-RES was > 100 µM (inactive) each time.

Take `COc1ccc(Nc2cnc3cc(N)ccc3n2)cc1OC`: the GI50 in the assay with KM-20L2 was 63.1 µM (inactive); in the assay with DLD-1, > 100 µM (inactive).

Take `C1=CCN(c2ccccc2)CC1`: the GI50 was 55.6 µM (inactive) in the assay on KM-20L2; 63.5 µM (inactive) with HOP-18; 29.8 µM (inactive) with SNB-78; 15.5 µM (inactive) with DLD-1; > 100 µM (inactive) in the assay on RXF 631.

Turning to `COc1ccc(-c2cc(N3CCN(c4ccccc4)CC3)c(C#N)c(=O)o2)cc1`, the GI50 in the assay with KM-20L2 is > 100 µM (inactive); with HOP-18, 4.88 µM (inactive); with SNB-78 it was 22.6 µM (inactive); with DLD-1, 57 µM (inactive); in the assay with RXF 631 it was 21.5 µM (inactive).

`CC(Cc1ccccc1)NC1=NCCO1` (stereo unspecified): the values for the GI50 with MCF7 and in the assay with PC-3 were > 100 µM (inactive) and 34.8 µM (inactive), respectively.

Consider `O=C1CCCC1C(O)(C(F)(F)Cl)C(F)(F)Cl` (stereo unspecified), for which the GI50 in the assay with MCF7, with PC-3, with MDA-MB-435 and with NCI/ADR-RES was > 10 µM (inactive) each time.

In the case of `CC(=O)c1ccc(NC(=O)/C(CC(=O)/C=C/c2ccccc2)=N/NC(N)=S)cc1`, the GI50 in the assay with MCF7 is 34.4 µM (inactive); in the assay with PC-3, > 100 µM (inactive); in the assay on MDA-MB-435, > 100 µM (inactive); in the assay with NCI/ADR-RES, 50 µM (inactive).

`CCN1CCC(O)(c2ccc(O)cc2)C(C(=O)c2ccc(O)cc2)C1` (stereo unspecified): the GI50 in the assay with MCF7 is 3.18 µM (inactive); with PC-3, > 10 µM (inactive); in the assay on MDA-MB-435 it was 17.3 µM (inactive); in the assay on NCI/ADR-RES, 26.3 µM (inactive).

As for `COc1cc(C(=O)CC2OC(=O)C(Cl)=C2Cl)ccc1Cl` (stereo unspecified), the GI50 with KM-20L2, with HOP-18, in the assay on SNB-78, in the assay with DLD-1 and with RXF 631 was > 100 µM (inactive) in each case.

Take `CSc1nc2c(nc(N)n2C2OCC(O)C(O)C2O)c(=O)[nH]1` (stereo unspecified): the GI50 in the assay with KM-20L2, in the assay on HOP-18, in the assay on SNB-78, with DLD-1 and in the assay with RXF 631 was > 100 µM (inactive) in each case.

Take `N#CC(C#N)=C1CCC2C(=C(C#N)C#N)CCC12` (stereo unspecified): the GI50 in the assay on KM-20L2, in the assay with SNB-78, in the assay with DLD-1 and with RXF 631 was > 100 µM (inactive) throughout.

On to `COc1oc(C2C/C(=C/C(C)=C/C(C)=C/C(C)=C/c3ccc([N+](=O)[O-])cc3)CO2)c(C)c(=O)c1C` (stereo unspecified), for which the GI50 is 1.59 µM (inactive) with MCF7, 2.02 µM (inactive) in the assay with PC-3 and 3.01 µM (inactive) in the assay on MDA-MB-435.

In the case of `C=C=C(Sc1ccccc1)C(C)(C)OC(C)=O`, the GI50 in the assay on KM-20L2 was 26.3 µM (inactive); in the assay with HOP-18 it was 20 µM (inactive); in the assay on SNB-78 it was 29.8 µM (inactive); in the assay on DLD-1 it was 16.5 µM (inactive).

On to `O=C(C1=C(C(=O)c2ccccc2)SC2(S1)C(C(=O)c1ccccc1)=C(C(=O)c1ccccc1)Sc1c2ssc1=O)c1ccccc1`, for which the GI50 with MCF7 is > 100 µM (inactive); in the assay with PC-3 it was > 100 µM (inactive); with MDA-MB-435, 70.6 µM (inactive); in the assay with NCI/ADR-RES, > 100 µM (inactive).

In the case of `C/C(C[n+]1ccccc1)=N\N=C(N)N`, the GI50 in the assay with MCF7, in the assay with PC-3, in the assay on MDA-MB-435 and in the assay on NCI/ADR-RES was > 100 µM (inactive) in each case.

With `CC(C)OP(=O)(OC(C)C)/C(F)=N/Nc1ccc([N+](=O)[O-])cc1`, the GI50 in the assay with KM-20L2 and in the assay on DLD-1 was > 100 µM (inactive) in each case.

Turning to `COc1ccc(C[C@H]2COC(=O)[C@@H]2Cc2cccc(Br)c2)cc1OC`, the GI50 is 16.2 µM (inactive) in the assay on MCF7, 15.8 µM (inactive) with PC-3, 26.6 µM (inactive) with MDA-MB-435 and 24.2 µM (inactive) in the assay on NCI/ADR-RES.

With `Cc1cc(C)c2c(O)cc(-c3cccc4ccccc34)nc2n1`, the GI50 in the assay on MCF7 is 0.719 µM (active); in the assay with PC-3 it was 0.641 µM (active); with MDA-MB-435, 0.172 µM (active); with NCI/ADR-RES, 0.52 µM (active).

Turning to `NC(CP(=O)(O)O)C(=O)O` (stereo unspecified), the GI50 with MCF7, in the assay with PC-3, with MDA-MB-435 and in the assay with NCI/ADR-RES was > 100 µM (inactive) each time.

With `Nc1ccc(S(=O)(=O)c2ccc(NCN3C(=O)NC(=O)C(=O)C3=O)cc2)cc1` [ALLANTODAPSONE], the GI50 in the assay with PC-3, in the assay with MDA-MB-435 and in the assay with NCI/ADR-RES was > 100 µM (inactive) each time.

As for `CC[n+]1c(-c2ccccc2)c2cc(N)ccc2c2ccc(N)cc21` [HOMIDIUM BROMIDE], the GI50 with MCF7 was 2 µM (inactive); in the assay with PC-3, 5.06 µM (inactive); with MDA-MB-435, 3.5 µM (inactive); with NCI/ADR-RES, > 100 µM (inactive).
